Measured values published in patent US20050048490A1, “Proteins associated with cell growth, differentiation, and death” (incyte corp., priority 2002, published 2005).

Tests used:
SEQ ID NO:96 = test: Microarray expression analysis, steroid-treated versus untreated C3A cells; type: cell-based, human; conditions: early confluent C3A cells treated at 1, 10, and 100 μM for 1, 3, and 6 hours
Procedure: (§1) Total RNA is isolated from tissue samples using the guanidinium thiocyanate method and poly(A)^+ RNA is purified using the oligo-(dT) cellulose method. Each poly(A)^+ RNA sample is reverse transcribed using MMLV reverse-transcriptase, 0.05 pg/μl oligo-(dT) primer (21mer), 1× first strand buffer, 0.03 units/μl RNase inhibitor, 500 μM dATP, 500 μM dGTP, 500 μM dTTP, 40 μM dCTP, 40 μM dCTP-Cy3 (BDS) or dCTP-Cy5 (Amersham Biosciences). The reverse transcription reaction is performed in a […] containing 200 ng poly(A)^+ RNA with GEMBRIGHT kits (Incyte Genomics). Specific control poly(A)^+ RNAs are synthesized by in vitro transcription from non-coding yeast genomic DNA. […]
(§2) Sequences of the present invention are used to generate array elements. […] Array elements are amplified in thirty cycles of PCR from an initial quantity of 1-2 ng to a final quantity greater than 5 μg. […]
(§3) Reporter-labeled hybridization complexes are detected with a microscope equipped with an Innova 70 mixed gas 10 W laser (Coherent, Inc., Santa Clara Calif.) capable of generating spectral lines at 488 nm for excitation of Cy3 and at 632 nm for excitation of Cy5. […]
(§4) A grid is superimposed over the fluorescence signal image such that the signal from each spot is centered in each element of the grid. […]

SEQ ID NO:94 = test: Microarray expression analysis, activated versus untreated Jurkat cells; type: cell-based, human; conditions: Jurkat cells treated with combinations of graded doses of PMA (5 nM-1 μM) and ionomycin (50 ng/ml-10μ/ml), 1 hour time point
Procedure: as §1, §2, §3, §4

SEQ ID NO:101 = test: Microarray expression analysis, TNF-α treated versus untreated HUVECs; type: cell-based, human; conditions: HUVECs at 85% confluence treated for 0.33, 0.66, 1, 4, 8, 24, 48, and 72 hours, versus untreated HUVECs (0 hour)
Procedure: as §1, §2, §3, §4

SEQ ID NO:102 = test: as above; type: cell-based, human; conditions: HUVECs at 85% confluence treated for 0.33, 0.66, 1, 4, 8, 24, 48, and 72 hours, versus untreated HUVECs (0 hour)
Procedure: as §1, §2, §3, §4

SEQ ID NO:104 = test: Microarray expression analysis, preadipocytes exposed to differentiation factors versus untreated; type: cell-based; conditions: human preadipocytes treated with human insulin and PPAR-γ agonist for 3 days, then insulin
Procedure: as §1, §2, §3, §4

Row | Molecule | expression of SEQ ID NO:96 (SEQ ID NO:96) | expression of SEQ ID NO:94 (SEQ ID NO:94) | also measured
1 | 6-methyl-17-hydroxyprogesterone [medroxyprogesterone] | decreased expression | – | –
2 | CCCCCCCCCCCCCC(=O)O[C@@H]1[C@@H](C)[C@@]2(O)[C@@H](C=C(CO)C[C@]3(O)C(=O)C(C)=C[C@@H]23)[C@@H]2C(C)(C)[C@]12OC(C)=O [PMA, Phorbol myristate acetate] | – | decreased expression | –
3 | C[C@H]1C[C@H]2[C@@H]3CCC4=CC(=O)C=C[C@]4(C)[C@@]3(Cl)[C@@H](O)C[C@]2(C)[C@@]1(O)C(=O)CO [beclomethasone, Beclomethasone] | decreased expression | – | –
4 | C[C@H](CCC(=O)O)C[C@H](C)C[C@H](C)C(=O)/C=C(\O)[C@H](C)C[C@H](C)C/C=C/[C@@H](C)[C@@H](O)[C@@H](C)[C@@H](O)C[C@@H]1CC[C@@](C)([C@H]2CC[C@@](C)([C@@H](C)O)O2)O1 [ionomycin, Ionomycin] | – | decreased expression | –
5 | TNF-α | – | – | expression of SEQ ID NO:101 (SEQ ID NO:101): decreased expression; expression of SEQ ID NO:102 (SEQ ID NO:102): decreased expression
6 | human insulin: differentiation factor used on human preadipocytes | – | – | expression of SEQ ID NO:104 (SEQ ID NO:104): decreased expression
